{"source": "paper PMC6879718", "about": "“Mycobacterial OtsA Structures Unveil Substrate Preference Mechanism and Allosteric Regulation by 2-Oxoglutarate and 2-Phosphoglycerate” (mBio, 2019)", "key": {"[1]": {"molecular_target": "M. thermoresistibile OtsA wild type (Mycolicibacterium thermoresistibile, UniProt G7CGT2)", "experiment": "Effect of feedback inhibitors and allosteric regulators on OtsA activity (wild type)", "assay_type": "biochemical, Mycobacterium thermoresistibile"}, "[2]": {"tested_on": "Nc1nc2c(ncn2[C@@H]2O[C@H](COP(=O)(O)OP(=O)(O)O[C@H]3O[C@H](CO)[C@@H](O)[C@H](O)[C@H]3O)[C@@H](O)[C@H]2O)c(=O)[nH]1", "experiment": "OtsA kinetic parameters, continuous colorimetric coupled assay (V363F)", "assay_type": "biochemical, Mycobacterium thermoresistibile", "details": "other: V363F; G6P fixed at 10 mM for NDP-glucose, ADP-glucose […] for G6P; pH 7.5; 37.0 °C", "method": "(§3) Formation of T6P was assessed by a continuous colorimetric assay that followed the release of NDP by measuring the oxidation of NADH at 340 nm, in the presence of pyruvate kinase and lactate dehydrogenase. All reagents used were obtained from Sigma-Aldrich."}, "[3]": {"tested_on": "Nc1ncnc2c1ncn2[C@@H]1O[C@H](COP(=O)(O)OP(=O)(O)O[C@H]2O[C@H](CO)[C@@H](O)[C@H](O)[C@H]2O)[C@@H](O)[C@H]1O", "experiment": "OtsA kinetic parameters, continuous colorimetric coupled assay (V363F)", "assay_type": "biochemical, Mycobacterium thermoresistibile", "details": "other: V363F; G6P fixed at 10 mM for NDP-glucose, ADP-glucose […] for G6P; pH 7.5; 37.0 °C", "method": "as §3"}, "[4]": {"tested_on": "O=C[C@H](O)[C@@H](O)[C@H](O)[C@H](O)COP(=O)(O)O", "experiment": "OtsA kinetic parameters, continuous colorimetric coupled assay (V363F)", "assay_type": "biochemical, Mycobacterium thermoresistibile", "details": "other: V363F; G6P fixed at 10 mM for NDP-glucose, ADP-glucose […] for G6P; pH 7.5; 37.0 °C", "method": "as §3"}, "[5]": {"molecular_target": "T1, M. thermoresistibile OtsA R213E (Mycolicibacterium thermoresistibile, UniProt G7CGT2, R213E)", "T1 sequence (G7CGT2 1-486 R213E)": "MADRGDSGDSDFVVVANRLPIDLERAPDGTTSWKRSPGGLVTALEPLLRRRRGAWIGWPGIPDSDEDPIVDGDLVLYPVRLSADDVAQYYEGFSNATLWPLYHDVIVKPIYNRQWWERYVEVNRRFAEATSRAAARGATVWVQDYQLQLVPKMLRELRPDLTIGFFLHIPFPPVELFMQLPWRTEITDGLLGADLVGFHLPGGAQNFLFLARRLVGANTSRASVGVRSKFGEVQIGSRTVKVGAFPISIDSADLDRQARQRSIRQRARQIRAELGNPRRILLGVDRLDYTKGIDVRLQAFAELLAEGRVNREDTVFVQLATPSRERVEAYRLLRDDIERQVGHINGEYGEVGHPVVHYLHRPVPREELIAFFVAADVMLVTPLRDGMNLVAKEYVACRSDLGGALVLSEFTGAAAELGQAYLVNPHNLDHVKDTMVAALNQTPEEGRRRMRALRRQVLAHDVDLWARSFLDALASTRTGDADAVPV", "experiment": "Effect of allosteric regulators on OtsA activity (R213E)", "assay_type": "biochemical, Mycobacterium thermoresistibile", "details": "R213E, G6P and ADP-glucose both 0.3 mM", "description": "(§1) . All reagents used were obtained from Sigma-Aldrich. The enzymatic reactions (200-μl reaction mixture) were performed at 37°C, and the reaction mixtures contained 50 mM Tris (pH 7.5), 200 mM NaCl, 10 mM MgCl2, 50 mM KCl, 0.3 mM NADH, 2.5 mM phosphoenolpyruvate (PEP), 10 units of pyruvate kinase-lactate dehydrogenase, 0.1 μM enzyme, and various concentrations of G6P and NDP-glucose to determine kinetic parameters.\n(§2) […]. All experiments were performed in triplicate in a PHERAstar plate reader (BMG Labtech), and data were analyzed with Prism 5 (GraphPad Software)."}, "[6]": {"molecular_target": "T2, M. thermoresistibile OtsA R384E (Mycolicibacterium thermoresistibile, UniProt G7CGT2, R384E)", "T2 sequence (G7CGT2 1-486 R384E)": "T1 sequence (G7CGT2 1-486 R213E)", "experiment": "Effect of allosteric regulators on OtsA activity (R384E)", "assay_type": "biochemical, Mycobacterium thermoresistibile", "details": "R384E, G6P and ADP-glucose both 0.3 mM", "description": "as §1, §2"}, "[7]": {"molecular_target": "Mycobacterium thermoresistibile OtsA (Mycobacterium thermoresistibile (DSM 44167))", "experiment": "not stated; in solution; the paper does not tell by which method the tetramer was seen"}, "[8]": {"molecular_target": "Mycobacterium thermoresistibile OtsA (Mycobacterium thermoresistibile (DSM 44167))", "experiment": "crystal structure; apo form in space group I4(1)22, ADP-G6P ternary complex in P6(2)22, one protomer per asymmetric unit each; sitting-drop vapor diffusion at 18°C"}, "[9]": {"details": "wild type, G6P and ADP-glucose both 0.3 mM"}}, "note": "“Also recorded” adds a separate entry of the source. Where two headings read alike, the source gives them in different places.", "data": [{"molecule": "O=S(=O)(O)CCNC1CCCCC1", "note": "[CHES, N-cyclohexyl-2-aminoethanesulfonic acid]", "values": [{"measurement": "effect on OtsA activity", "setting": "[1]; [9]", "value": "no discernible impact on OtsA activity"}]}, {"molecule": "O=C(CO)[C@@H](O)[C@H](O)[C@H](O)COP(=O)(O)O", "note": "[F6P]", "values": [{"measurement": "effect on OtsA activity", "setting": "[1]", "value": "could not detect any effect; also recorded: no effect on the enzyme activity"}]}, {"molecule": "M. thermoresistibile OtsA V363F (Mycolicibacterium thermoresistibile ATCC 19527; V363F)", "values": [{"measurement": "Km", "setting": "[2]", "value": "740 ± 80", "unit": "µM"}, {"measurement": "kcat", "setting": "[2]", "value": "14 ± 1", "unit": "s⁻¹"}, {"measurement": "kcat/Km", "setting": "[2]", "value": "19000 ± 3000", "unit": "M⁻¹ s⁻¹"}, {"measurement": "Km", "setting": "[3]", "value": "600 ± 30", "unit": "µM"}, {"measurement": "kcat", "setting": "[3]", "value": "11 ± 1", "unit": "s⁻¹"}, {"measurement": "kcat/Km", "setting": "[3]", "value": "18000 ± 2000", "unit": "M⁻¹ s⁻¹"}, {"measurement": "Km", "setting": "[4]", "value": "3100 ± 200", "unit": "µM"}, {"measurement": "kcat", "setting": "[4]", "value": "19 ± 1", "unit": "s⁻¹"}, {"measurement": "kcat/Km", "setting": "[4]", "value": "6100 ± 700", "unit": "M⁻¹ s⁻¹"}]}, {"molecule": "O=C(O)CCC(=O)C(=O)O", "note": "[2OG, 2-oxoglutarate]", "values": [{"measurement": "nH, Hill coefficient (95% confidence interval)", "setting": "[1]; [9]", "value": "1.4 (1.1–1.7)"}, {"measurement": "IC50", "setting": "[1]; wild type, G6P and ADP-glucose both 0.3 mM, read-out: IC50 (95% confidence interval)", "value": 1800, "unit": "µM"}, {"measurement": "effect on OtsA activity", "setting": "[5]", "value": "abolished the strong response"}, {"measurement": "nH, Hill coefficient (95% confidence interval)", "setting": "[5]", "value": "0.26 (0.16–0.35)"}, {"measurement": "IC50", "setting": "[5]; read-out: IC50 (95% confidence interval)", "value": 73000, "unit": "µM"}, {"measurement": "effect on OtsA activity", "setting": "[6]", "value": "strong activator"}, {"measurement": "nH, Hill coefficient (95% confidence interval)", "setting": "[6]", "value": "2.5 (1.4–3.5)"}, {"measurement": "EC50", "setting": "[6]; read-out: EC50 (95% confidence interval), activation", "value": 700, "unit": "µM"}]}, {"molecule": "O=C(O)C(CO)OP(=O)(O)O", "note": "(centres unmarked) [2PG, 2-phosphoglyceric acid]", "values": [{"measurement": "IC50", "setting": "[1]", "value": 2300, "unit": "µM"}, {"measurement": "nH, Hill coefficient (95% confidence interval)", "setting": "[1]; [9]", "value": "2.0 (1.4–2.7)"}, {"measurement": "nH, Hill coefficient (95% confidence interval)", "setting": "[5]", "value": "0.51 (0.40–0.63)"}, {"measurement": "effect on OtsA activity", "setting": "[6]", "value": "no effect"}]}, {"molecule": "Mycobacterium thermoresistibile OtsA (enzyme)", "values": [{"measurement": "stoichiometry N", "setting": "[7]", "value": 4}, {"measurement": "stoichiometry N", "setting": "[8]", "value": 4}]}, {"molecule": "O=P(O)(O)OC[C@H]1O[C@H](O[C@H]2O[C@H](CO)[C@@H](O)[C@H](O)[C@H]2O)[C@H](O)[C@@H](O)[C@@H]1O", "note": "[T6P, trehalose-6-phosphate]", "values": [{"measurement": "effect on OtsA activity", "setting": "[1]; [9]", "value": "very low sensitivity"}]}]}
